≈ marks a conversion by molar mass, not a printed value. Ends that are not written are not given here.

Data set [1] concerns A. baumannii biofilm (IC 003321216). Description: Mature biofilm eradication, MTT viability. The settings on record: ciprofloxacin alone.
The test system of another data set is Gram-negative bacteria. Nature of the data set: MIC and MBC assays, span over strains. The class given is cell-based. Here is the method:
(§1) Clinical and Laboratory Standards Institute (CLSI) guidelines performed the peptide MIC assays. Bacterial colonies were isolated on the Muller Hinton Agar (MHA) and plated at a final concentration of 1.5 × 10^5 CFU/ml.
(§2) For the results, bacterial growth was determined by visual inspection and confirmed by absorbance measurement at 595 nm after 24 h of incubation using a Multiskan GO microplate reader (Thermo Fisher Scientific, USA). […] The rest of the assay was conducted as previously described.
(§3) The MBC was determined based on the MIC results. Three replicates of 10 μl were extracted from the microplate wells, placed on MHA, and then kept in an incubator at 37°C for 24 h. […] All experiments were performed in triplicate.

Data set [2] has as its system Staphylococcus aureus (MRSA) ATCC 43300. Nature of the data set: microbe, parasite or virus in culture. Here is the method: as §1, §2, §3
Data set [3] relates to Staphylococcus saprophyticus ATCC 29970. Description: microbe, parasite or virus in culture. On the procedure: as §1, §2, §3
For data set [4], the system named is Pseudomonas aeruginosa ATCC 27853. Nature of the data set: microbe, parasite or virus in culture. Here is the method: as §1, §2, §3
Data set [5] concerns Escherichia coli KPC+ 001812446. Nature of the data set: microbe, parasite or virus in culture. Here is the method:
as §1, §2, §3

Data set [6] deals with Staphylococcus aureus (MRSA) ATCC 33591. Description: microbe, parasite or virus in culture. On the procedure:
as §1, §2, §3

A further data set concerns E. coli. More on the design: method as in PMID 16352849. To be noted: cited from earlier work.
A further data set has as its system ESKAPE pathogens. The settings on record: at one-third of the MIC; cited from earlier work. From the text: A. baumannii, known for colonising medical equipment surfaces like urinary catheters to form a biofilm, contributes to recurrent and persistent patient infections. WLBU-2, a synthetic cationic peptide, and LL-37, a naturally occurring antimicrobial peptide, underwent testing for efficacy against a range ...

Data set [7] deals with Klebsiella pneumoniae ATCC 700603. To be noted: ATCC 700603, 24 h. On the procedure:
as §1, §2, §3

The test system of data set [8] is Acinetobacter baumannii ATCC 19906. To be noted: ATCC 19906, 24 h. On the procedure:
as §1, §2, §3

Data set [9] relates to Acinetobacter baumannii IC 003321216. The settings on record: IC 003321216, 24 h. Here is the method:
as §1, §2, §3

For data set [10], the system named is Escherichia coli ATCC 35218. The settings on record: ATCC 35218, 24 h. On the procedure: as §1, §2, §3
In another data set the test system is human erythrocytes. Format: cell-based. To be noted: 100 µM. Here is the method: Hemolytic activity. As hemolysis is an effect widely observed among antimicrobial peptides, we investigated the RK8 peptide hemolytic activity based on the protocol proposed by Uggerhøj et al. using erythrocytes. The blood sample (1 ml) was washed three times with 3 ml of saline solution through centrifugation cycles of 8 min at 1,380 ×g to secure a concentrated solution of erythrocytes. […] The samples were incubated for 60 min at 37°C and sequentially centrifuged for 10 min at 2,455 ×g. Subsequently, 100 μl of the supernatant was transferred to 96-well microplate wells in triplicate. The free haemoglobin content was determined at 414 nm on a Multiskan GO microplate reader (Thermo Fisher Scientific).

The test system of data set [11] is RAW 264.7 murine macrophages. The settings on record: 64 µM.
Protocol: Cellular viability. RAW 264.7 murine macrophages' cellular viability was evaluated in the presence of the RK8 peptide, according to the method proposed by Mosmann [18], using the enzymatic reduction of the reagent 3-(4,5-dimethylthiazol-2-yl bromide) -2,5-diphenyltetrazolium (MTT).
After detaching from the culture bottle, their density was determined, and they were seeded in a 96-well microplate at a density of 6 × 10^3 cells per well. After being placed in microplates, the cells were incubated for 24 h. The culture medium was replaced with a DMEM culture medium lacking SFB supplementation. Instead, it contained a serial dilution of RK8 ranging from 1 to 64 μM. After 24 h, the medium containing RK8 was removed and replaced with 100 μl of DMEM medium containing MTT 0.5 mg/ml. After four hours of incubation, the medium was removed again, and the reduced formazan crystals were resuspended with the addition of 100 μl of DMSO. Then, the absorbance of the wells was determined at 630 nm in a Varioskan microplate reader (Thermo Fisher Scientific). Three independent experiments were performed in triplicate. Cell viability was calculated from the following formula:
Cell viability (%) = (AbsSample÷AbsNegative control) × 100
A further data set in a line: in vitro. On the procedure:
The mixture was maintained at 30°C. Aliquots of 150 μl were collected after 0, 15, 30, 45, 60, and 120 min, mixed with ten μl of Trifluoroacetic Acid (TFA) and centrifuged at 14 000 rpm at 4°C for 10 min [19]. High-Performance Liquid Chromatography (HPLC) monitored the stability of the peptide using the C-18 reversed-phase hydrophobic column (μ Bondapak C18, 3.9 × 300 mm, Waters, USA) at 25°C. The peptide's remaining percentage during degradation kinetics was calculated by integrating the peak area corresponding to the RK8 peptide, injecting 40 μl of the incubation product in triplicate. The assay was conducted in an Ultimate 3000 chromatograph (Thermo Fisher Scientific). A separation program of 60 min at 1 ml/min was implemented, with monitoring of the 220 and 280 nm wavelengths. Thermo Scientific's ChromeleonTM Chromatography Data System (CDS) 7 software determined the area under the curve.

The test system of data set [12] is E. coli, P. aeruginosa, and A. baumanii. To be noted: 24 h.
Setting [13] is: Staphylococcus saprophyticus, ATCC29970, 24 h.

Turning to `O=C(O)c1cn(C2CC2)c2cc(N3CCNCC3)c(F)cc2c1=O` [Ciprofloxacin, ciprofloxacin], the impact on biofilm entry in data set [1] was “no impact”.
Consider `CN[C@H](CC(C)C)C(=O)N[C@H]1C(=O)N[C@@H](CC(N)=O)C(=O)N[C@H]2C(=O)N[C@H]3C(=O)N[C@H](C(=O)N[C@H](C(=O)O)c4cc(O)cc(O)c4-c4cc3ccc4O)[C@H](O)c3ccc(c(Cl)c3)Oc3cc2cc(c3O[C@@H]2O[C@H](CO)[C@@H](O)[C@H](O)[C@H]2O[C@H]2C[C@](C)(N)[C@H](O)[C@H](C)O2)Oc2ccc(cc2Cl)[C@H]1O` [Vancomycin, vancomycin, reference compound], for which the MBC in the data set on Gram-negative bacteria (read-out: MBC values) was 0.5 to 4 µM (≈ 0.725 to 5.8 µg/mL); in data set [2] (Staphylococcus aureus, ATCC43300|MRSA, 24 h, 10 μl from MIC wells on MHA, 37°C, triplicate), 1 µM (≈ 1.45 µg/mL); in data set [3] (10 μl from MIC wells on MHA, 37°C, 24 h, triplicate), “one”; in [3] (setting [13]), 1 µM (≈ 1.45 µg/mL); in data set [4] (Pseudomonas aeruginosa, ATCC27853, 24 h), 1 µM (≈ 1.45 µg/mL); in data set [5] (Escherichia coli, 24 h), 0.5 µM (≈ 0.725 µg/mL). This compound also came in with an MBC in [6] (Staphylococcus aureus, 24 h) of 1 µM (≈ 1.45 µg/mL). Besides, the MIC against Gram-negative bacteria (span over Gram-negative strains, 1.5 × 10^5 CFU per ml) was 0.5 to 8 µM (≈ 0.725 to 11.6 µg/mL); in data set [3] (setting [13]), 0.5 µM (≈ 0.725 µg/mL); in data set [5] (Escherichia coli, 24 h), 0.5 µM (≈ 0.725 µg/mL).
Indolicidin: in the data set with E. coli, the MIC was 10 µM.
On to LL-37, for which, in the data set with ESKAPE pathogens, the “inhibition of biofilm formation” value is given as 90%.
In general, cell viability refers to a per cent measure of how many cells are alive, often set against a control. Low values mean more harm to the cells, high ones less harm to the cells. The term fraction remaining denotes what is left of the initial amount, in per cent. As for RKWRKWWK [RK8], the MBC in data set [7] is 64 µM; in data set [8] it was 4 µM; in [9], 4 µM; in data set [10] it was 2 µM; in data set [2] (ATCC 43300, 24 h), 8 µM; in [3] (ATCC 29970, 24 h) it was 64 µM. Besides, the MBC in data set [4] (ATCC 27853, 24 h) was 64 µM; in data set [5] (KPC+ 001812446, 24 h), 8 µM; in data set [6] (ATCC 33591, 24 h) it was 8 µM. The MIC in [7] was greater than 64 µM; in [8] it was greater than 64 µM; in [9], 64 µM; in data set [10], greater than 64 µM; in data set [2] (ATCC 43300, 24 h), 16 µM; in data set [3] (ATCC 29970, 24 h), greater than 64 µM. The MIC stood at 16 µM in [5] (KPC+ 001812446, 24 h) and 8 µM in data set [6] (ATCC 33591, 24 h). In addition, the hemolysis result in the data set with human erythrocytes is reported as “approximately 4.6%”. In [11], this compound registered a cell viability of 90.1%. For the same compound, in the data set “in vitro” (25% FBS in ultrapure water, 30°C, 120 min, RP-HPLC C18 peak area, triplicate), the “decrease in the overall area” value was 40%. Moreover, the “area under the RK8 peak (intact peptide)” value in “in vitro” (25% FBS in ultrapure water, 30°C, first 45 min, RP-HPLC C18 peak area, triplicate) is given as “unaffected”. In addition, the metabolised at 1 h, 0.385 mg/ml in the data set “in vitro” (25% fetal bovine serum (FBS)) stood at 12.2%. Further, the share remaining at 2 h, 0.385 mg/ml in the data set “in vitro” (25% fetal bovine serum (FBS)) is roughly 60%. In addition, in data set [12], the “concentrations with bactericidal effect (consistent MIC and MBC values)” value was 0.5 to 4 µM.

Source of the values: PMC11637823, “Evaluating the Antimicrobial Efficacy of a Designed Synthetic Peptide against Pathogenic Bacteria” (Journal of Microbiology and Biotechnology, 2024).
